The values that follow come from ChEMBL document CHEMBL3779811, “A new dammarane-type saponin from Gynostemma pentaphyllum induces apoptosis in A549 human lung carcinoma cells” (Bioorg Med Chem Lett, 2016).

In brackets after ≈: the same amount, converted by molar mass. Activity calls are given as the source filed them. The calls are words filed in the database; no cut-off is given here.

For experiment [1], the system named is A549. As to the kind of experiment: Induction of apoptosis in human A549 cells assessed as loss of mitochondrial membrane potential by measuring ratio of red to green fluorescence at 50 ug/ml after 48 hrs by JC-1 staining based flow cytometry (reference value: 28.9). It counts as functional. (Flow cytometry measures light scatter and fluorescence of single cells or particles in a stream.)

The test system of experiment [2] is A549. As to the kind of experiment: Induction of apoptosis in human A549 cells assessed as increase in detached cells at 50 ug/ml after 48 hrs by inverted microscopy. The experiment is classed as functional, cell-based.
Experiment [3] relates to A549. In words: Induction of apoptosis in human A549 cells assessed as early apoptotic cells at 50 ug/mL after 48 hrs by Annexin V-FITC/propidium iodide staining based flow cytometry (reference value: 4.57 %). It counts as functional.
Experiment [4] deals with A549. As to the kind of experiment: Induction of apoptosis in human A549 cells assessed as mitochondrial depolarization at 50 ug/ml after 48 hrs by JC-1 staining based fluorescence microscopy. It counts as functional, cell-based.
Experiment [5] has as its system A549. In words: Induction of apoptosis in human A549 cells assessed as chromatin condensation at 50 ug/mL after 48 hrs by Hoechst-33258 staining based fluorescence microscopy. The experiment is classed as functional, cell-based.
The test system of experiment [6] is A549. As to the kind of experiment: Cytotoxicity against human A549 cells assessed as decrease in viable cells after 48 hrs by CCK-8 assay. It counts as functional, cell-based. Conditions: for IC50: A549, 48 h. (Tetrazolium assays rely on reduction of a dye to a coloured formazan, in cell work by metabolically active cells.)
Experiment [7] concerns A549. As to the kind of experiment: Induction of apoptosis in human A549 cells assessed as late apoptotic cells at 50 ug/mL after 48 hrs by Annexin V-FITC/propidium iodide staining based flow cytometry (reference value: 3.38 %). It counts as functional.
The test system of experiment [8] is A549. In words: Induction of apoptosis in human A549 cells assessed as necrotic cells at 50 ug/mL after 48 hrs by Annexin V-FITC/propidium iodide staining based flow cytometry (reference value: 0.59 %). It counts as functional.
The test system of experiment [9] is A549. In words: Induction of apoptosis in human A549 cells assessed as viable cells at 50 ug/mL after 48 hrs by Annexin V-FITC/propidium iodide staining based flow cytometry (reference value: 91.46 %). The experiment is classed as functional. The conditions noted are these: A549, 48 h, read-out: Activity.
For experiment [10], the system named is A549. As to the kind of experiment: Induction of apoptosis in human A549 cells assessed as round and shrunken cells at 50 ug/mL after 48 hrs by inverted microscopy. The experiment is classed as functional, cell-based.
For experiment [11], the system named is A549. In words: Induction of apoptosis in human A549 cells assessed as mitochondrial membrane potential at 50 ug/ml after 48 hrs by JC-1 staining based flow cytometry (reference value: 96.66%). The experiment is classed as functional.
The subject of experiment [12] is A549. As to the kind of experiment: Cytotoxicity against human A549 cells assessed as decrease in viable cells at 60 ug/mL after 48 hrs by CCK-8 assay. It counts as functional.

The term IC50 denotes the concentration needed to halve the response being measured. For `CC(C)=CCC[C@](C)(O)[C@@H]1CC[C@@]2(C)[C@H]1[C@@H](O)C[C@H]1[C@]3(C)C[C@H](O)[C@@H](O[C@H]4O[C@@H](CO)[C@H](O)[C@@H](O)[C@@H]4O)C(C)(C)[C@H]3CC[C@@]12C`, the Ratio in experiment [1] amounted to 8.7. Further, the result in [2], in experiment [4], in [5] and in [10] was Active. In addition, the Activity in experiment [3] was 14.34%; in [6] it was “Dose-dependent effect”; in experiment [7] it was 2.74%; in experiment [8], 1.44%; in [11], 89.64%; in experiment [12] it was 44.7%. In experiment [6], the IC50 amounted to 74.3 µg/mL (≈ 116 µM). The viability at 50 µg/mL in experiment [9] is 81.5%.
With `C=C(CCC=C(C)C)[C@H]1CC[C@]2(C)[C@@H]1[C@H](O)C[C@@H]1[C@@]3(C)C[C@@H](O)[C@H](O[C@@H]4O[C@H](CO)[C@@H](O)[C@H](O)[C@H]4O[C@@H]4O[C@H](COC(C)=O)[C@@H](O)[C@H](O)[C@H]4O)C(C)(C)[C@@H]3CC[C@]12C`, in [6], the IC50 is 40.4 µg/mL (≈ 49 µM).
For `CC(C)=CCC[C@@](C)(O[C@@H]1O[C@H](CO[C@H]2OC[C@H](O)[C@@H](O)[C@@H]2O)[C@@H](O)[C@H](O)[C@H]1O)[C@@H]1CC[C@@]2(C)[C@H]1[C@@H](O)C[C@H]1[C@]3(C)C[C@H](O)[C@@H](O[C@H]4O[C@@H](CO)[C@H](O)[C@@H](O)[C@@H]4O[C@H]4O[C@@H](CO)[C@H](O)[C@@H](O)[C@@H]4O)C(C)(C)[C@H]3CC[C@@]12C`, the IC50 in [6] was found to be 168 µg/mL (≈ 153 µM).
Still for that read-out and setting: the figure for `CC(C)=CC/C=C(/C)[C@H]1CC[C@]2(C)[C@@H]1[C@H](O)C[C@@H]1[C@@]3(C)C[C@@H](O)[C@H](O[C@@H]4O[C@H](CO)[C@@H](O)[C@H](O)[C@H]4O[C@@H]4O[C@H](CO)[C@@H](O)[C@H](O)[C@H]4O)C(C)(C)[C@@H]3CC[C@]12C` is 29 µg/mL (≈ 37 µM); for `CC(=O)OC[C@H]1O[C@@H](O[C@H]2[C@H](O[C@H]3[C@H](O)C[C@]4(C)[C@H]5C[C@@H](O)[C@@H]6[C@@H](/C(C)=C\CC=C(C)C)CC[C@@]6(C)[C@]5(C)CC[C@H]4C3(C)C)O[C@H](CO)[C@@H](O)[C@@H]2O)[C@H](O)[C@@H](O)[C@@H]1O` it is 61.2 µg/mL (≈ 74.2 µM).
With `CC(C)=CCC[C@@](C)(O)[C@H]1CC[C@]2(C)[C@@H]1[C@H](O)C[C@@H]1[C@@]3(C)C[C@@H](O)[C@H](O[C@@H]4O[C@H](CO)[C@@H](O)[C@H](O)[C@H]4O[C@@H]4O[C@H](CO)[C@@H](O)[C@H](O)[C@H]4O)C(C)(C)[C@@H]3CC[C@]12C`, in experiment [6], the Activity entry is “Dose-dependent effect” and the IC50 is 91 µg/mL (≈ 114 µM). In [12], the Activity was 30%.
Consider `CC(C)=CCC[C@@](C)(O[C@@H]1O[C@H](CO)[C@@H](O)[C@H](O)[C@H]1O)[C@@H]1CC[C@@]2(C)[C@H]1[C@@H](O)C[C@H]1[C@]3(C)C[C@H](O)[C@@H](O[C@H]4O[C@@H](CO)[C@H](O)[C@@H](O)[C@@H]4O[C@H]4O[C@@H](CO)[C@H](O)[C@@H](O)[C@@H]4O)C(C)(C)[C@H]3CC[C@@]12C`, for which the IC50 in experiment [6] was 112 µg/mL (≈ 116 µM).
Consider `CC(C)=CCC[C@](C)(O)[C@H]1CC[C@]2(C)[C@@H]1[C@H](O)C[C@@H]1[C@@]3(C)C[C@@H](O)[C@H](O[C@@H]4O[C@H](CO)[C@@H](O)[C@H](O)[C@H]4O[C@@H]4O[C@H](CO)[C@@H](O)[C@H](O)[C@H]4O)C(C)(C)[C@@H]3CC[C@]12C`, for which, in [6], the Activity entry is “Dose-dependent effect” and the IC50 was found to be 78.6 µg/mL (≈ 98.1 µM). Also, in experiment [12], the Activity is on record as 37.2%.
In the case of `C=C(CCC=C(C)C)[C@H]1CC[C@]2(C)[C@@H]1[C@H](O)C[C@@H]1[C@@]3(C)C[C@@H](O)[C@H](O[C@@H]4O[C@H](CO)[C@@H](O)[C@H](O)[C@H]4O[C@@H]4O[C@H](CO)[C@@H](O)[C@H](O)[C@H]4O)C(C)(C)[C@@H]3CC[C@]12C` [DAMULIN B], the IC50 in [6] amounted to 23.8 µg/mL (≈ 30.4 µM).
